Results: ChEMBL document CHEMBL4020822, “Identification of N-{cis-3-[Methyl(7H-pyrrolo[2,3-d]pyrimidin-4-yl)amino]cyclobutyl}propane-1-sulfonamide (PF-04965842): A Selective JAK1 Clinical Candidate for the Treatment of Autoimmune Diseases” (J Med Chem, 2018)
Values after ≈ are worked out from the molar mass of the structure shown.

Experiments:
physchem = conditions: octanol/water phosphate buffer, pH 7.4
[1] = Aqueous solubility of the compound at pH 7.4; assay type: physicochemical
[2] = Volume of distribution at steady state in rat at 1 mg/kg, iv or 3 mg/kg, po; assay type: ADME, organism-based; conditions: in vivo, read-out: Vdss
[3] = Oral bioavailability in rat at 3 mg/kg; assay type: ADME, organism-based; conditions: in vivo
[4] = Apparent permeability in RRCK cells from apical to basolateral side; assay type: ADME, cell-based, Canis lupus familiaris, MDCKII-LE; conditions: dog, MDCK
[5] = Tmax in freund's adjuvant-induced Lewis rat arthritis model blood at 15 mg/kg, po qd administered via oral gavage measured on day 7; assay type: ADME, organism-based

Row | Compound | logD (physchem) | also measured
1 | CN(c1ncnc2[nH]ccc12)[C@H]1C[C@@H](NS(=O)(=O)NC2CC2)C1 | 1.6 | –
2 | CCS(=O)(=O)N1CC(CC#N)(n2cc(-c3ncnc4[nH]ccc34)cn2)C1 [BARICITINIB] | 1.2 | –
3 | CN(c1ncnc2[nH]ccc12)[C@H]1C[C@@H](NS(=O)(=O)N2CCCCC2)C1 | 2.7 | –
4 | CCN(C)S(=O)(=O)N[C@H]1C[C@@H](N(C)c2ncnc3[nH]ccc23)C1 | 2.1 | –
5 | CN(c1ncnc2[nH]ccc12)[C@H]1C[C@@H](NS(=O)(=O)Cc2ccccc2)C1 | 2.6 | –
6 | CN(c1ncnc2[nH]ccc12)[C@H]1C[C@@H](NS(=O)(=O)c2ccccc2)C1 | 2.8 | –
7 | CN(c1ncnc2[nH]ccc12)[C@H]1C[C@@H](NS(=O)(=O)C2CC2)C1 | 1.6 | –
8 | C[C@@H]1CCN(C(=O)CC#N)C[C@@H]1N(C)c1ncnc2[nH]ccc12 [TOFACITINIB] | 1.1 | –
9 | CN(c1ncnc2[nH]ccc12)[C@H]1C[C@@H](NS(=O)(=O)CCCC#N)C1 | – | solubility [1]: 259 µM (≈ 90.2 µg/mL); Vd [2]: 1.42 L/kg; bioavailability [3]: 61.1%; Papp A→B [4]: 4 ×10⁻⁶ cm/s
10 | CN(CCC#N)S(=O)(=O)N[C@H]1C[C@@H](N(C)c2ncnc3[nH]ccc23)C1 | 1.3 | –
11 | CN(c1ncnc2[nH]ccc12)[C@H]1C[C@@H](NS(=O)(=O)CCCC(F)(F)F)C1 | 2.4 | –
12 | CN(c1ncnc2[nH]ccc12)[C@H]1C[C@@H](NS(=O)(=O)CC2CC2)C1 | 1.8 | –
13 | CN(c1ncnc2[nH]ccc12)[C@H]1C[C@@H](NS(=O)(=O)CC2CCC2)C1 | 2.4 | –
14 | CN(c1ncnc2[nH]ccc12)[C@H]1C[C@@H](NS(=O)(=O)CC(F)(F)F)C1 | 1.9 | –
15 | CCCCS(=O)(=O)C[C@H]1C[C@@H](N(C)c2ncnc3[nH]ccc23)C1 | 2.2 | solubility [1]: 213 µM (≈ 71.7 µg/mL); Vd [2]: 0.74 L/kg; bioavailability [3]: 119%; Papp A→B [4]: 23 ×10⁻⁶ cm/s
16 | CN(c1ncnc2[nH]ccc12)[C@H]1C[C@@H](NS(=O)(=O)CC2COC2)C1 | 1 | solubility [1]: 437 µM (≈ 154 µg/mL); Vd [2]: 1.99 L/kg; bioavailability [3]: 48.3%; Papp A→B [4]: 3 ×10⁻⁶ cm/s
17 | CC(C)CS(=O)(=O)N[C@H]1C[C@@H](N(C)c2ncnc3[nH]ccc23)C1 | 2.4 | –
18 | CCCS(=O)(=O)N[C@H]1C[C@H](N(C)c2ncnc3[nH]ccc23)C1 | 2 | –
19 | CN(c1ncnc2[nH]ccc12)[C@H]1C[C@@H](CS(=O)(=O)N2CCCC2)C1 | 2.1 | –
20 | CN(C1CC1)S(=O)(=O)N[C@H]1C[C@@H](N(C)c2ncnc3[nH]ccc23)C1 | 2.2 | –
21 | CN(c1ncnc2[nH]ccc12)[C@H]1C[C@@H](NS(C)(=O)=O)C1 | 1.2 | –
22 | N#CC[C@H](C1CCCC1)n1cc(-c2ncnc3[nH]ccc23)cn1 [RUXOLITINIB] | 2.7 | –

Row | Compound | logD (physchem) | also measured
23 | CN(c1ncnc2[nH]ccc12)[C@H]1C[C@@H](CS(=O)(=O)C2CC2)C1 | 1.6 | –
24 | CN(c1ncnc2[nH]ccc12)[C@H]1C[C@@H](CS(=O)(=O)NCC2CC2)C1 | 2.2 | –
25 | CCCCN(C)S(=O)(=O)C[C@H]1C[C@@H](N(C)c2ncnc3[nH]ccc23)C1 | 3 | –
26 | CCCCNS(=O)(=O)C[C@H]1C[C@@H](N(C)c2ncnc3[nH]ccc23)C1 | 2.6 | –
27 | CCCNS(=O)(=O)N[C@H]1C[C@@H](N(C)c2ncnc3[nH]ccc23)C1 | 2 | –
28 | CCNS(=O)(=O)N[C@H]1C[C@@H](N(C)c2ncnc3[nH]ccc23)C1 | 1.6 | –
29 | CN(c1ncnc2[nH]ccc12)[C@H]1C[C@@H](CS(=O)(=O)c2ccccc2)C1 | 2.7 | –
30 | CN(CC1CC1)S(=O)(=O)C[C@H]1C[C@@H](N(C)c2ncnc3[nH]ccc23)C1 | 2.7 | –
31 | COCCCS(=O)(=O)N[C@H]1C[C@@H](N(C)c2ncnc3[nH]ccc23)C1 | 1.5 | –
32 | CCS(=O)(=O)C[C@H]1C[C@@H](N(C)c2ncnc3[nH]ccc23)C1 | 1.2 | –
33 | CN(c1ncnc2[nH]ccc12)[C@H]1C[C@@H](NS(=O)(=O)CCC(F)(F)F)C1 | 2.4 | –
34 | CCS(=O)(=O)N[C@H]1C[C@@H](N(C)c2ncnc3[nH]ccc23)C1 | 1.4 | –
35 | CCCNS(=O)(=O)C[C@H]1C[C@@H](N(C)c2ncnc3[nH]ccc23)C1 | 2.1 | –
36 | COCCS(=O)(=O)N[C@H]1C[C@@H](N(C)c2ncnc3[nH]ccc23)C1 | 1.2 | –
37 | CCCS(=O)(=O)N[C@H]1C[C@@H](N(C)c2ncnc3[nH]ccc23)C1 [ABROCITINIB] | 1.9 | Tmax [5]: 15 min; solubility [1]: 503 µM (≈ 163 µg/mL); Vd [2]: 1.04 L/kg; bioavailability [3]: 95.6%; Papp A→B [4]: 16 ×10⁻⁶ cm/s
38 | CCCS(=O)(=O)C[C@H]1C[C@@H](N(C)c2ncnc3[nH]ccc23)C1 | 1.7 | –
39 | CN(c1ncnc2[nH]ccc12)[C@H]1C[C@@H](NS(=O)(=O)c2ccc(F)cc2)C1 | 2.8 | –
40 | CN(c1ncnc2[nH]ccc12)[C@H]1C[C@@H](NS(=O)(=O)NCCCC#N)C1 | 1.2 | –
41 | CN(c1ncnc2[nH]ccc12)[C@H]1C[C@@H](NS(=O)(=O)NCC2CC2)C1 | 2.1 | –
42 | CCNS(=O)(=O)C[C@H]1C[C@@H](N(C)c2ncnc3[nH]ccc23)C1 | 1.5 | –
43 | CCCCS(=O)(=O)N[C@H]1C[C@@H](N(C)c2ncnc3[nH]ccc23)C1 | 2.4 | –
